For seven compounds, MIC results are on record in ChEMBL document CHEMBL1649169, “Multiresistance in Pasteurella multocida is mediated by coexistence of small plasmids” (2009).

Values after ≈ are worked out from the molar mass of the structure shown. Bounds are passed on as bounds.

Holding throughout (format): functional
Assay [1] deals with Pasteurella multocida. The assay can be described thus: Antibacterial activity against Pasteurella multocida ATCC 43137 by CLSI M31-A3 broth microdilution method. Background: In broth dilution the organism is exposed to a series of concentrations in liquid medium.
The test system of assay [2] is Pasteurella multocida. The assay can be described thus: Antibacterial activity against Pasteurella multocida BB1040 harboring plasmid pB1000 bearing blaROB-1 gene and plasmid pB9956 bearing tetH gene by CLSI M31-A3 broth microdilution method.
Assay [3] deals with Pasteurella multocida. The assay can be described thus: Antibacterial activity against Pasteurella multocida BB1041 harboring plasmid pB1000 bearing blaROB-1 gene and plasmid pB9956 bearing tetH gene by CLSI M31-A3 broth microdilution method.
For assay [4], the system named is Pasteurella multocida. The assay can be described thus: Antibacterial activity against Pasteurella multocida BB1042 harboring plasmid pB1000 bearing blaROB-1 gene and plasmid pB9956 bearing tetH gene by CLSI M31-A3 broth microdilution method.
The subject of assay [5] is Pasteurella multocida. Description: Antibacterial activity against Pasteurella multocida BB1037 harboring plasmid pB1000 bearing blaROB-1 gene and plasmid pB1005 bearing strA, sul2 genes by CLSI M31-A3 broth microdilution method.
The subject of assay [6] is Pasteurella multocida. Description: Antibacterial activity against Pasteurella multocida BB1039 harboring plasmid pB1000 bearing blaROB-1 gene and plasmid pB9956 bearing tetH gene by CLSI M31-A3 broth microdilution method.
For assay [7], the system named is Pasteurella multocida. The assay can be described thus: Antibacterial activity against Pasteurella multocida BB1044 harboring plasmid pB1000 bearing blaROB-1 gene, plasmid 1006 bearing tetO gene and plasmid pB1005 bearing strA, sul2 genes by CLSI M31-A3 broth microdilution method.
The test system of assay [8] is Pasteurella multocida. The assay can be described thus: Antibacterial activity against Pasteurella multocida BB1034 harboring plasmid pB1000 bearing blaROB-1 gene and plasmid pB1001 bearing tetB gene by CLSI M31-A3 broth microdilution method.
Assay [9] deals with Pasteurella multocida. The assay can be described thus: Antibacterial activity against Pasteurella multocida BB1035 harboring plasmid pB1000 bearing blaROB-1 gene and plasmid pB1005 bearing strA, sul2 genes by CLSI M31-A3 broth microdilution method.
Assay [10] relates to Pasteurella multocida. Description: Antibacterial activity against Pasteurella multocida BB1043 harboring plasmid pB1000 bearing blaROB-1 gene and plasmid pB9956 bearing tetH gene by CLSI M31-A3 broth microdilution method.
Assay [11] has as its system Pasteurella multocida. Description: Antibacterial activity against Pasteurella multocida BB1046 harboring plasmid pB1003 bearing blaROB-1 gene and plasmid pB1002 bearing strA, sul2 genes by CLSI M31-A3 broth microdilution method.
The subject of assay [12] is Pasteurella multocida. The assay can be described thus: Antibacterial activity against Pasteurella multocida BB1038 harboring plasmid pB1000 bearing blaROB-1 gene and plasmid pB1005 bearing strA, sul2 genes by CLSI M31-A3 broth microdilution method.
Assay [13] concerns Pasteurella multocida. The assay can be described thus: Antibacterial activity against Pasteurella multocida BB1036 harboring plasmid pB1000 bearing blaROB-1 gene and plasmid pB1005 bearing strA, sul2 genes by CLSI M31-A3 broth microdilution method.
In assay [14] the test system is Pasteurella multocida. The assay can be described thus: Antibacterial activity against Pasteurella multocida BB1045 harboring plasmid pB1000 bearing blaROB-1 gene and plasmid pB9956 bearing tetH gene by CLSI M31-A3 broth microdilution method.

Turning to `CN[C@@H]1[C@H](O[C@H]2[C@H](O[C@H]3[C@H](O)[C@@H](O)[C@H](N=C(N)N)[C@@H](O)[C@@H]3N=C(N)N)O[C@@H](C)[C@]2(O)C=O)O[C@@H](CO)[C@H](O)[C@H]1O` [STREPTOMYCIN], the MIC (commonly the smallest concentration in the dilution series that meets the test's criterion for growth inhibition) is 8 µg/mL (≈ 13.8 µM) against Pasteurella multocida [1]; 16 µg/mL (≈ 27.5 µM) in the assay on Pasteurella multocida [2]; 16 µg/mL (≈ 27.5 µM) in the assay with Pasteurella multocida [3]; 8 µg/mL (≈ 13.8 µM) in the assay on Pasteurella multocida [4]; over 256 µg/mL in the assay on Pasteurella multocida [5]; 8 µg/mL (≈ 13.8 µM) in the assay on Pasteurella multocida [6]. Also, the MIC in the assay on Pasteurella multocida [7] is over 256 µg/mL; in the assay on Pasteurella multocida [8], 32 µg/mL (≈ 55 µM); with Pasteurella multocida [9], over 256 µg/mL; in the assay with Pasteurella multocida [10], 8 µg/mL (≈ 13.8 µM); against Pasteurella multocida [11] it was over 256 µg/mL; against Pasteurella multocida [12], over 256 µg/mL. Moreover, the MIC against Pasteurella multocida [13] is over 256 µg/mL; against Pasteurella multocida [14] it was 16 µg/mL (≈ 27.5 µM).

With `CC1(C)S[C@@H]2[C@H](NC(=O)Cc3ccccc3)C(=O)N2[C@H]1C(=O)O` [PENICILLIN G], the MIC is at most 0.03 µg/mL against Pasteurella multocida [1]; over 16 µg/mL against Pasteurella multocida [2]; over 16 µg/mL with Pasteurella multocida [3]; over 16 µg/mL with Pasteurella multocida [4]; over 16 µg/mL with Pasteurella multocida [5]; over 16 µg/mL against Pasteurella multocida [6]. For the same compound, the MIC with Pasteurella multocida [7], with Pasteurella multocida [8], with Pasteurella multocida [9], against Pasteurella multocida [10], against Pasteurella multocida [11] and in the assay on Pasteurella multocida [12] was over 16 µg/mL each time. The MIC in the assay on Pasteurella multocida [13] and against Pasteurella multocida [14] was over 16 µg/mL in each case.

On to `N[C@@H](C(=O)N[C@@H]1C(=O)N2C(C(=O)O)=C(Cl)CS[C@H]12)c1ccccc1` [CEFACLOR ANHYDROUS], for which the MIC is at most 1 µg/mL in the assay with Pasteurella multocida [1]; over 16 µg/mL against Pasteurella multocida [2]; over 16 µg/mL in the assay with Pasteurella multocida [3]; over 16 µg/mL against Pasteurella multocida [4]; over 16 µg/mL against Pasteurella multocida [5]; over 16 µg/mL with Pasteurella multocida [6]. Further, the MIC in the assay on Pasteurella multocida [7], against Pasteurella multocida [8], against Pasteurella multocida [9], against Pasteurella multocida [10], in the assay with Pasteurella multocida [11] and against Pasteurella multocida [12] was over 16 µg/mL in each case. Moreover, the MIC against Pasteurella multocida [13] and in the assay with Pasteurella multocida [14] was over 16 µg/mL each time.

For the compound `Cc1cc(NS(=O)(=O)c2ccc(N)cc2)no1` [SULFAMETHOXAZOLE], the MIC in the assay with Pasteurella multocida [1], in the assay with Pasteurella multocida [2], against Pasteurella multocida [3], against Pasteurella multocida [4], in the assay with Pasteurella multocida [5] and with Pasteurella multocida [6] was over 256 µg/mL each time. Also, the MIC in the assay on Pasteurella multocida [7], with Pasteurella multocida [8], against Pasteurella multocida [9], with Pasteurella multocida [10], in the assay on Pasteurella multocida [11] and with Pasteurella multocida [12] was over 256 µg/mL in each case. The MIC with Pasteurella multocida [13] and in the assay with Pasteurella multocida [14] was over 256 µg/mL throughout.

For `CO/N=C(\C(=O)N[C@@H]1C(=O)N2C(C(=O)O)=C(COC(C)=O)CS[C@H]12)c1csc(N)n1` [CEFOTAXIME], the MIC is at most 0.06 µg/mL against Pasteurella multocida [1]; 1 µg/mL (≈ 2.2 µM) against Pasteurella multocida [2]; 1 µg/mL (≈ 2.2 µM) against Pasteurella multocida [3]; 1 µg/mL (≈ 2.2 µM) against Pasteurella multocida [4]; 1 µg/mL (≈ 2.2 µM) in the assay on Pasteurella multocida [5]; 1 µg/mL (≈ 2.2 µM) against Pasteurella multocida [6]. In addition, the MIC with Pasteurella multocida [7] was found to be 1 µg/mL (≈ 2.2 µM); in the assay on Pasteurella multocida [8], 1 µg/mL (≈ 2.2 µM); with Pasteurella multocida [9], 0.5 µg/mL (≈ 1.1 µM); against Pasteurella multocida [10], 1 µg/mL (≈ 2.2 µM); with Pasteurella multocida [11], 0.5 µg/mL (≈ 1.1 µM); in the assay on Pasteurella multocida [12] it was 1 µg/mL (≈ 2.2 µM). For the same compound, the MIC against Pasteurella multocida [13] and with Pasteurella multocida [14] was 1 µg/mL (≈ 2.2 µM) in each case.

Take `CC1(C)S[C@@H]2[C@H](NC(=O)[C@H](N)c3ccc(O)cc3)C(=O)N2[C@H]1C(=O)O` [AMOXICILLIN]: the MIC against Pasteurella multocida [1] was at most 1 µg/mL; against Pasteurella multocida [2], over 256 µg/mL; with Pasteurella multocida [3], over 256 µg/mL; with Pasteurella multocida [4], over 256 µg/mL; against Pasteurella multocida [5], over 256 µg/mL; with Pasteurella multocida [6] it was over 256 µg/mL. The MIC in the assay with Pasteurella multocida [7], against Pasteurella multocida [8], in the assay with Pasteurella multocida [9], with Pasteurella multocida [10], in the assay with Pasteurella multocida [11] and against Pasteurella multocida [12] was over 256 µg/mL each time. Moreover, the MIC in the assay with Pasteurella multocida [13] and with Pasteurella multocida [14] was over 256 µg/mL in each case.

As to `CN(C)[C@@H]1C(O)=C(C(N)=O)C(=O)[C@@]2(O)C(O)=C3C(=O)c4c(O)cccc4[C@@](C)(O)[C@H]3C[C@@H]12` [TETRACYCLINE], the minimum inhibitory concentration (MIC) turned out to be 2 µg/mL (≈ 4.5 µM) in the assay on Pasteurella multocida [1]; 32 µg/mL (≈ 72 µM) in the assay on Pasteurella multocida [2]; 32 µg/mL (≈ 72 µM) against Pasteurella multocida [3]; 32 µg/mL (≈ 72 µM) in the assay on Pasteurella multocida [4]; 2 µg/mL (≈ 4.5 µM) against Pasteurella multocida [5]; 32 µg/mL (≈ 72 µM) with Pasteurella multocida [6]. The MIC against Pasteurella multocida [7] came to 32 µg/mL (≈ 72 µM); with Pasteurella multocida [8], 16 µg/mL (≈ 36 µM); with Pasteurella multocida [9] it was 2 µg/mL (≈ 4.5 µM); with Pasteurella multocida [10], 32 µg/mL (≈ 72 µM); with Pasteurella multocida [11], 1 µg/mL (≈ 2.25 µM); against Pasteurella multocida [12] it was 2 µg/mL (≈ 4.5 µM). Also, the MIC is 2 µg/mL (≈ 4.5 µM) against Pasteurella multocida [13] and 32 µg/mL (≈ 72 µM) in the assay on Pasteurella multocida [14].
